Source: patent publication US20230031406A1, “COMPOUNDS AND COMPOSITIONS FOR TREATING CONDITIONS ASSOCIATED WITH NLRP ACTIVITY” (Novartis AG, priority 2018, published 2023)

system: PMA-differentiated THP-1 cells; assay: IL-1β production in PMA-differentiated THP-1 cells stimulated with gramicidin (hTHP-1 assay containing 2% fetal bovine serum; Procedures 1 and 2); format: cell-based, human; conditions: Homo sapiens, THP-1, Table B2; 2% fetal bovine serum; class symbols; read-out: hTHP-1 IC50
In short: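 Compound titrations in 0.37% final DMSO were added to THP-1 cells that had been plated after 16-18 h PMA treatment, 50,000 per well in 2% FBS. One hour later the cells received gramicidin (5 μM, 2 h) and were centrifuged. HTRF detected IL-1β in the collected supernatants.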

Row | SMILES | IC50 [µM]
1 | CC(O)c1nc(C(C)(C)O)sc1S(=N)(=O)NC(=O)Nc1c2c(nc3c1CCC3)CCC2 (single isomer, unassigned) [Compound 643a, (R, R/S) or (S, R/S)-N-((1,2,3,5,6,7-hexahydrodicyclopenta [b,e]pyridin-8-yl)carbamoyl)-4-(1-hydroxyethyl)-2-(2-hydroxypropan-2-yl) thiazole-5-sulfonimidamide] | 5 to 30
2 | Cc1c(C(C)C)nc2c(c1NC(=O)N=S(N)(=O)c1ccn(C(C)C)n1)CCC2 (single isomer, unassigned) [Compound 644b, (R) or (S)-1-Isopropyl-N′-((2-isopropyl-3-methyl-6,7-dihydro-5H-cyclopenta[b]pyridin-4-yl)carbamoyl)-1H-pyrazole-3-sulfonimidamide] | 1 to 5
3 | Cc1c(C(F)F)nc2c(c1NC(=O)N=S(N)(=O)c1cnc(C(C)(C)O)s1)CCC2 (single isomer, unassigned) [Compound 647a, (R) or (S)-N′-((2-(difluoromethyl)-3-methyl-6,7-dihydro-5H-cyclopenta[b]pyridin-4-yl)carbamoyl)-2-(2-hydroxypropan-2-yl)thiazole-5-sulfonimidamide] | 1 to 5
4 | COC(C)(C)c1nc(CO)c(S(N)(=O)=NC(=O)Nc2c3c(nc4c2CCC4(C)C)CCC3)s1 (single isomer, unassigned) [Compound 648a, (R) or (S)-N′-((3,3-dimethyl-1,2,3,5,6,7-hexahydrodicyclopenta [b,e]pyridin-8-yl)carbamoyl)-4-(hydroxymethyl)-2-(2-methoxypropan-2-yl)thiazole-5-sulfonimidamide] | 0.2 to 1
5 | Cc1c(C2CCC2)nc2c(c1NC(=O)N=S(N)(=O)c1cnc(C(C)(C)O)s1)CCC2 (single isomer, unassigned) [Compound 649a, (R) or (S)-N′-((2-cyclobutyl-3-methyl-6,7-dihydro-5H-cyclopenta[b]pyridin-4-yl)carbamoyl)-2-(2-hydroxypropan-2-yl)thiazole-5-sulfonimidamide] | 5 to 30

same assay, conditions: Homo sapiens, THP-1, Table B2; 2% fetal bovine serum; numeric bounds; read-out: hTHP-1 IC50

Row | SMILES | IC50 [µM]
6 | Cc1c(C(C)C)nc2c(c1NC(=O)N=S(N)(=O)c1ccn(C(C)C)n1)CCC2 (single isomer, unassigned) [Compound 644a, (S) or (R)-1-Isopropyl-N′-((2-isopropyl-3-methyl-6,7-dihydro-5H-cyclopenta[b]pyridin-4-yl)carbamoyl)-1H-pyrazole-3-sulfonimidamide] | > 30
7 | Cc1c(C(F)F)nc2c(c1NC(=O)N=S(N)(=O)c1cnc(C(C)(C)O)s1)CCC2 (single isomer, unassigned) [Compound 647b, (S) or (R)-N′-((2-(difluoromethyl)-3-methyl-6,7-dihydro-5H-cyclopenta[b]pyridin-4-yl)carbamoyl)-2-(2-hydroxypropan-2-yl)thiazole-5-sulfonimidamide] | > 30
8 | COC(C)(C)c1nc(CO)c(S(N)(=O)=NC(=O)Nc2c3c(nc4c2CCC4(C)C)CCC3)s1 (single isomer, unassigned) [Compound 648b, (S) or (R)-N′-((3,3-dimethyl-1,2,3,5,6,7-hexahydrodicyclopenta [b,e]pyridin-8-yl)carbamoyl)-4-(hydroxymethyl)-2-(2-methoxypropan-2-yl)thiazole-5-sulfonimidamide] | > 30
9 | Cc1c(C2CCC2)nc2c(c1NC(=O)N=S(N)(=O)c1cnc(C(C)(C)O)s1)CCC2 (single isomer, unassigned) [Compound 649b, (S) or (R)-N′-((2-cyclobutyl-3-methyl-6,7-dihydro-5H-cyclopenta[b]pyridin-4-yl)carbamoyl)-2-(2-hydroxypropan-2-yl)thiazole-5-sulfonimidamide] | > 30

same assay, conditions: Table B2; 2% fetal bovine serum; class symbols; read-out: hTHP-1 IC50

Row | SMILES | IC50 [µM]
10 | CC1(C)CCc2c1nc1c(c2NC(=O)N=S(N)(=O)c2sc(C(C)(O)CO)cc2F)CCC1 (single isomer, unassigned) [Compound 640b, (S, R) and (R, R) or (R, S) and (S, S)-5-(1,2-Dihydroxypropan-2-yl)-N′-((3,3-dimethyl-1,2,3,5,6,7-hexahydrodicyclopenta [b,e]pyridin-8-yl)carbamoyl)-3-fluorotliophene-2-sulfonimidamide] | 0.04 to 0.2
11 | CC1(C)CCc2c1nc1c(c2NC(=O)N=S(N)(=O)c2sc(C(C)(O)CO)cc2F)CCC1 (single isomer, unassigned) [Compound 640c, (R, S) and (S, S) or (S, R) and (R, R)-5-(1,2-Dihydroxypropan-2-yl)-N′-((3,3-dimethyl-1,2,3,5,6,7-hexahydrodicyclopenta [b,e]pyridin-8-yl)carbamoyl)-3-fluorotliophene-2-sulfonimidamide] | 1 to 5
12 | CC(C)(O)c1sc(S(N)(=O)=NC(=O)Nc2c3c(nc4c2CCC4(C)C)CCC3)nc1CO (single isomer, unassigned) [Compound 642a, (S) or (R)-N′-((3,3-dimethyl-1,2,3,5,6,7-hexahydrodicyclopenta [b,e]pyridin-8-yl)carbamoyl)-4-(hydroxymethyl)-5-(2-hydroxypropan-2-yl)thiazole-2-sulfonimidamide] | 5 to 30
13 | CC(C)(O)c1sc(S(N)(=O)=NC(=O)Nc2c3c(nc4c2CCC4(C)C)CCC3)nc1CO (single isomer, unassigned) [Compound 642b, (R) or (S)-N′-((3,3-dimethyl-1,2,3,5,6,7-hexahydrodicyclopenta [b,e]pyridin-8-yl)carbamoyl)-4-(hydroxymethyl)-5-(2-hydroxypropan-2-yl)thiazole-2-sulfonimidamide] | 0.04 to 0.2
14 | CC(O)c1nc(C(C)(C)O)sc1S(=N)(=O)NC(=O)Nc1c2c(nc3c1CCC3)CCC2 (single isomer, unassigned) [Compound 643b, (S, R/S) or (R, R/S)-N-((1,2,3,5,6,7-hexahydrodicyclopenta [b,e]pyridin-8-yl)carbamoyl)-4-(1-hydroxyethyl)-2-(2-hydroxypropan-2-yl) thiazole-5-sulfonimidamide] | 5 to 30
15 | Cc1c(C(C)C)nc2c(c1NC(=O)N=S(N)(=O)c1sc(C(C)(C)O)cc1F)CCC2 (single isomer, unassigned) [Compound 645a, (R) or (S)-3-Fluoro-5-(2-hydroxypropan-2-yl)-N′-((2-isopropyl-3-methyl-6,7-dihydro-5H-cyclopenta[b]pyridin-4-yl)carbamoyl) thiophene-2-sulfonimidamide] | 0.04 to 0.2
16 | Cc1c(C(C)C)nc2c(c1NC(=O)N=S(N)(=O)c1sc(C(C)(C)O)cc1F)CCC2 (single isomer, unassigned) [Compound 645b, (S) or (R)-3-Fluoro-5-(2-hydroxypropan-2-yl)-N′-((2-isopropyl-3-methyl-6,7-dihydro-5H-cyclopenta[b]pyridin-4-yl)carbamoyl) thiophene-2-sulfonimidamide] | 5 to 30
17 | Cc1c(C(C)C)nc2c(c1NC(=O)N=S(N)(=O)c1cnc(C(C)(C)O)s1)CCC2 (single isomer, unassigned) [Compound 650a, (R) or (S)-2-(2-Hydroxypropan-2-yl)-N′-((2-isopropyl-3-methyl-6,7-dihydro-5H-cyclopenta[b]pyridin-4-yl)carbamoyl)thiazole-5-sulfonimidamide] | 0.04 to 0.2
18 | Cc1c(C(C)C)nc2c(c1NC(=O)N=S(N)(=O)c1cnc(C(C)(C)O)s1)CCC2 (single isomer, unassigned) [Compound 650b, (S) or (R)-2-(2-Hydroxypropan-2-yl)-N′-((2-isopropyl-3-methyl-6,7-dihydro-5H-cyclopenta[b]pyridin-4-yl)carbamoyl)thiazole-5-sulfonimidamide] | 5 to 30
